Experimental data as given in patent US20260258035A1, “FIVE-MEMBERED AND SIX-MEMBERED NITROGEN-CONTAINING COMPOUND, AND INTERMEDIATE, PREPARATION METHOD AND USE THEREOF” (HANGZHOU SYNRX THERAPEUTICS BIOMEDICAL TECHNOLOGY CO., LTD., priority 2022, published 2026).
Read-outs that look alike come from different tables or passages of the source.

Columns and labels:
[1] = test system: HCC1806; experiment: Cell viability assay (CellTiter-Glo); type: cell-based, Human; details: HCC1806, 7 days, CellTiter-Glo, read-out: IC50 (nM) in cell viability assay
[2] = target: PARG (Homo sapiens, UniProt Q86W56); experiment: Biochemical assay (PARG, TFMU-ADPr substrate)
[3] = 4 nM PARG, 66.2 uM TFMU-ADPr, 3 min at room temperature

PARG, sequence (Q86W56 whole entry): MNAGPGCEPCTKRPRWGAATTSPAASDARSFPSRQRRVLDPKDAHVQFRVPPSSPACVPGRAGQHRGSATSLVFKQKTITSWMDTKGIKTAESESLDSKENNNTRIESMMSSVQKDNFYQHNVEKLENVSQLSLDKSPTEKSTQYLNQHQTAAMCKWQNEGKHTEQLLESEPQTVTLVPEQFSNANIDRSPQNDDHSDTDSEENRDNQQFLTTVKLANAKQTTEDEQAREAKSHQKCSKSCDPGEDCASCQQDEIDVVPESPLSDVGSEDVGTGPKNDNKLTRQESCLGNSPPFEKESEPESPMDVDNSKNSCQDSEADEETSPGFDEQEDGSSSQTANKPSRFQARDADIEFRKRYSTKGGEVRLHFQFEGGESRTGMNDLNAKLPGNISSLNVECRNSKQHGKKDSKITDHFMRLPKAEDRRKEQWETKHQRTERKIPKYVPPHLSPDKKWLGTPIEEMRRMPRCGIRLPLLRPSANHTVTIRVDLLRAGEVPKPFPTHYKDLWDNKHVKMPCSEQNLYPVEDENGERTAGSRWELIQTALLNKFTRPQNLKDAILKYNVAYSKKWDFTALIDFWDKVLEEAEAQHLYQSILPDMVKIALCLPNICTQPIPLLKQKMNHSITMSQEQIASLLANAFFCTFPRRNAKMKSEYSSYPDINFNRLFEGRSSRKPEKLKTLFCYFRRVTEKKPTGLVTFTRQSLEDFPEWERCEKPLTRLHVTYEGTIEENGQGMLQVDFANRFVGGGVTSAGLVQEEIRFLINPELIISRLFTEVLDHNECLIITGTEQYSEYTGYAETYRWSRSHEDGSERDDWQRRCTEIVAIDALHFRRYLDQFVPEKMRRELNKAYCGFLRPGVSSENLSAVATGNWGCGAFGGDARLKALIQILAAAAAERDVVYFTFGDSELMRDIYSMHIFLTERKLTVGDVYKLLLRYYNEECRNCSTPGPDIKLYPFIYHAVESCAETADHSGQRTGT

Row | Compound | IC50 ([1]; Homo sapiens, HCC1806, 168 h) | IC50 ([2]; PARG, TFMU-ADPr substrate) | IC50 [1] | IC50 [2, 3]
1 | N#CC1(NS(=O)(=O)c2cc(N3CCN(C(=O)C(O)C(F)(F)F)CC3)c3cnc(-c4nnc(C(F)F)s4)n3c2)CC1 (stereo not drawn) [Example 261, N-(1-cyanocyclopropyl)-3-(5-(difluoromethyl)-1,3,4-thiadiazol-2-yl)-8-(4-(3,3,3-trifluoro-2-hydroxypropanoyl)piperazin-1-yl)imidazo[1,5-a]pyridine-6-sulfonamide] | 370 nM | 100 nM | – | –
2 | COCC1CN(c2cc(S(=O)(=O)NC3(C)COC3)cn3c(-c4nnc(C(F)F)s4)ncc23)CCN1 (stereo not drawn) [Example 357, 3-(5-(difluoromethyl)-1,3,4-thiadiazol-2-yl)-8-(3-(methoxymethyl)piperazin-1-yl)-N-(3-methyloxetan-3-yl)imidazo[1,5-a]pyridine-6-sulfonamide] | 208 nM | 8.31 nM | – | –
3 | N#CC1(NS(=O)(=O)c2cc(N3CCN(C(=O)[C@@H]4CCCN4)CC3)c3cnc(-c4nnc(C(F)(F)F)s4)n3c2)CC1 [Example 270, (S)-N-(1-cyanocyclopropyl)-8-(4-prolylpiperazin-1-yl)-3-(5-(trifluoromethyl)-1,3,4-thiadiazol-2-yl)imidazo[1,5-a]pyridine-6-sulfonamide] | 35900 nM | 91.2 nM | – | –
4 | [2H]C([2H])([2H])OC1(C(=O)N2CCN(c3cc(S(=O)(=O)NC4(C)CC4)cn4c(-c5nnc(C(F)(F)F)s5)ncc34)CC2)CC1 [Example 168, 8-(4-(1-(methoxy-d3)cyclopropane-1-carbonyl)piperazin-1-yl)-N-(1-methylcyclopropyl)-3-(5-(trifluoromethyl)-1,3,4-thiadiazol-2-yl)imidazo[1,5-a]pyridine-6-sulfonamide] | 14 nM | 0.15 nM | – | –
5 | CC1(NS(=O)(=O)c2cc(N3CCN(C(=O)C4(F)CNC4)CC3)c3cnc(-c4nnc(C(F)(F)F)s4)n3c2)CC1 [Example 317, 8-(4-(3-fluoroazetidine-3-carbonyl)piperazin-1-yl)-N-(1-methylcyclopropyl)-3-(5-(trifluoromethyl)-1,3,4-thiadiazol-2-yl)imidazo[1,5-a]pyridine-6-sulfonamide] | 1140 nM | 3.54 nM | – | –
6 | CC(O)(C#Cc1ccccc1)C(=O)N1CCN(c2cc(S(=O)(=O)NC3(C#N)CC3)cn3c(-c4nnc(C(F)(F)F)s4)ncc23)CC1 (stereo not drawn) [Example 257, N-(1-cyanocyclopropyl)-8-(4-(2-hydroxy-2-methyl-4-phenylbut-3-ynoyl)piperazin-1-yl)-3-(5-(trifluoromethyl)-1,3,4-thiadiazol-2-yl)imidazo[1,5-a]pyridine-6-sulfonamide] | 2110 nM | 191 nM | – | –
7 | C[C@@H]1CN(c2cc(S(=O)(=O)NC3(C)CC3)cn3c(-c4nnc(C(F)(F)F)s4)ncc23)CCN1C(=O)[C@H]1CCN1C [Example 306, 8-((R)-3-methyl-4-((R)-1-methylazetidine-2-carbonyl)piperazin-1-yl)-N-(1-methylcyclopropyl)-3-(5-(trifluoromethyl)-1,3,4-thiadiazol-2-yl)imidazo[1,5-a]pyridine-6-sulfonamide] | 89 nM | 6.11 nM | – | –
8 | COC1(C(=O)N2CCN(c3c(F)c(S(=O)(=O)NC4CC4)cn4c(-c5nnc(C(F)(F)F)s5)ncc34)CC2)CC1 [Example 195, N-cyclopropyl-7-fluoro-8-(4-(1-methoxycyclopropane-1-carbonyl)piperazin-1-yl)-3-(5-(trifluoromethyl)-1,3,4-thiadiazol-2-yl)imidazo[1,5-a]pyridine-6-sulfonamide] | 666 nM | 5.62 nM | – | –
9 | CC1(NS(=O)(=O)c2cc(N3CCOCC3)c3cnc(-c4nnc(C(F)F)s4)n3c2)CC1 [Example 347, 3-(5-(difluoromethyl)-1,3,4-thiadiazol-2-yl)-N-(1-methylcyclopropyl)-8-morpholinoimidazo[1,5-a]pyridine-6-sulfonamide] | 282 nM | 4.64 nM | – | –
10 | N#CC1(NS(=O)(=O)c2cc(N3CCN(C(=O)c4ccno4)CC3)c3cnc(-c4nnc(C(F)(F)F)s4)n3c2)CC1 [Example 255, N-(1-cyanocyclopropyl)-8-(4-(isoxazole-5-carbonyl)piperazin-1-yl)-3-(5-(trifluoromethyl)-1,3,4-thiadiazol-2-yl)imidazo[1,5-a]pyridine-6-sulfonamide] | 420 nM | 17.4 nM | – | –
11 | CO[C@H]1C[C@H](C(=O)N2CCN(c3cc(S(=O)(=O)NC4(C#N)CC4)cn4c(-c5nnc(C(F)(F)F)s5)ncc34)CC2)C1 [Example 245, N-(1-cyanocyclopropyl)-8-(4-((1r,3r)-3-methoxycyclobutane-1-carbonyl)piperazin-1-yl)-3-(5-(trifluoromethyl)-1,3,4-thiadiazol-2-yl)imidazo[1,5-a]pyridine-6-sulfonamide] | 2360 nM | 28.8 nM | – | –
12 | CC(C)C(=O)N1CCN(c2cc(S(=O)(=O)N[C@H]3C[C@H]3F)cn3c(-c4nnc(C(F)F)s4)ncc23)CC1 [Example 82, 3-(5-(difluoromethyl)-1,3,4-thiadiazol-2-yl)-N-((1S,2R)-2-fluorocyclopropyl)-8-(4-isobutyrylpiperazin-1-yl)imidazo[1,5-a]pyridine-6-sulfonamide] | 5000 to 30000 nM | 209 nM | 7050 nM | 100 to 500 nM
13 | CC(C)C(=O)N1CCN(c2cc(S(=O)(=O)NC3CC3)cn3c(-c4nnc(C(F)(F)F)s4)cnc23)CC1 [Example 208, N-cyclopropyl-8-(4-isobutyrylpiperazin-1-yl)-3-(5-(trifluoromethyl)-1,3,4-thiadiazol-2-yl)imidazo[1,2-a]pyridine-6-sulfonamide] | 3350 nM | 110 nM | – | –
14 | Cc1nnc(-c2cnn3c(N4CCN(C(=O)C(C)C)CC4)cc(S(=O)(=O)NC4(C#N)CC4)cc23)s1 [Example 30, N-(1-cyanocyclopropyl)-7-(4-isobutyrylpiperazin-1-yl)-3-(5-methyl-1,3,4-thiadiazol-2-yl)pyrazolo[1,5-a]pyridine-5-sulfonamide] | > 30000 nM | 88.9 nM | – | < 100 nM
15 | COC1(C(=O)N2CCN(c3c(F)c(S(=O)(=O)NC4(C)CC4)cn4c(-c5nnc(C(F)F)s5)ncc34)CC2)CC1 [Example 198, 3-(5-(difluoromethyl)-1,3,4-thiadiazol-2-yl)-7-fluoro-8-(4-(1-methoxycyclopropane-1-carbonyl)piperazin-1-yl)-N-(1-methylcyclopropyl)imidazo[1,5-a]pyridine-6-sulfonamide] | 27.8 nM | 0.66 nM | – | –
16 | N#CC1(NS(=O)(=O)c2cc(N3CCN(C(=O)[C@H]4CCN4)CC3)c3cnc(-c4nnc(C(F)(F)F)s4)n3c2)CC1 [Example 264, (R)-8-(4-(azetidine-2-carbonyl)piperazin-1-yl)-N-(1-cyanocyclopropyl)-3-(5-(trifluoromethyl)-1,3,4-thiadiazol-2-yl)imidazo[1,5-a]pyridine-6-sulfonamide] | 6640 nM | 75.9 nM | – | –
17 | CC1(NS(=O)(=O)c2cc(N3CCC(O)CC3)c3cnc(-c4nnc(C(F)F)s4)n3c2)CC1 [Example 305, 3-(5-(difluoromethyl)-1,3,4-thiadiazol-2-yl)-8-(4-hydroxypiperidin-1-yl)-N-(1-methylcyclopropyl)imidazo[1,5-a]pyridine-6-sulfonamide] | 130 nM | 6.91 nM | – | –
18 | COC1(C(=O)N2CCN(c3cc(S(=O)(=O)NC4(C)CC4)cn4c(-c5nnc(C(F)F)s5)ncc34)CC2)CC1 [Example 196, 3-(5-(difluoromethyl)-1,3,4-thiadiazol-2-yl)-8-(4-(1-methoxycyclopropane-1-carbonyl)piperazin-1-yl)-N-(1-methylcyclopropyl)imidazo[1,5-a]pyridine-6-sulfonamide] | 6.34 nM | < 0.1 nM | – | –
19 | COC1(C(=O)N2CCN(c3cc(S(=O)(=O)NC4(C)CC4)cn4c(-c5nnc(C(F)F)s5)ncc34)CC2)CN(CCF)C1 [Example 312, 3-(5-(difluoromethyl)-1,3,4-thiadiazol-2-yl)-8-(4-(1-(2-fluoroethyl)-3-methoxyazetidine-3-carbonyl)piperazin-1-yl)-N-(1-methylcyclopropyl)imidazo[1,5-a]pyridine-6-sulfonamide] | 6.02 nM | < 0.1 nM | – | –
20 | COCC1CN(c2cc(S(=O)(=O)NC3(C)COC3)cn3c(-c4nnc(C(F)(F)F)s4)cnc23)CCN1 (stereo not drawn) [Example 360, 8-(3-(methoxymethyl)piperazin-1-yl)-N-(3-methyloxetan-3-yl)-3-(5-(trifluoromethyl)-1,3,4-thiadiazol-2-yl)imidazo[1,2-a]pyridine-6-sulfonamide] | 637 nM | 36.3 nM | – | –
21 | O=C(C1COC1)N1CCN(c2cc(S(=O)(=O)NC3CC3)cn3c(-c4nnc(C(F)(F)F)s4)ncc23)CC1 [Example 217, N-cyclopropyl-8-(4-(oxetane-3-carbonyl)piperazin-1-yl)-3-(5-(trifluoromethyl)-1,3,4-thiadiazol-2-yl)imidazo[1,5-a]pyridine-6-sulfonamide] | 3070 nM | 66.1 nM | – | –
22 | COC[C@@H]1CN(c2cc(S(=O)(=O)NC3(C#N)CC3)cn3c(-c4nnc(C(F)F)s4)ncc23)CCN1C(=O)C(C)C [Example 223, (S)-N-(1-cyanocyclopropyl)-3-(5-(difluoromethyl)-1,3,4-thiadiazol-2-yl)-8-(4-isobutyryl-3-(methoxymethyl)piperazin-1-yl)imidazo[1,5-a]pyridine-6-sulfonamide] | 250 nM | 1.45 nM | – | –
23 | N#CC1(NS(=O)(=O)c2cc(N3CCC(n4ccnn4)CC3)c3cnc(-c4nnc(C(F)(F)F)s4)n3c2)CC1 [Example 218, 8-(4-(1H-1,2,3-triazol-1-yl)piperidin-1-yl)-N-(1-cyanocyclopropyl)-3-(5-(trifluoromethyl)-1,3,4-thiadiazol-2-yl)imidazo[1,5-a]pyridine-6-sulfonamide] | 1050 nM | 39.8 nM | – | –
24 | CC1(NS(=O)(=O)c2cc(N3CCN(C(=O)c4ncc[nH]4)CC3)c3cnc(-c4nnc(C(F)F)s4)n3c2)CC1 [Example 339, 8-(4-(1H-imidazole-2-carbonyl)piperazin-1-yl)-3-(5-(difluoromethyl)-1,3,4-thiadiazol-2-yl)-N-(1-methylcyclopropyl)imidazo[1,5-a]pyridine-6-sulfonamide] | 226 nM | 3.16 nM | – | –
